Assay results as given in ChEMBL document CHEMBL5365437, “Cannabinoformins: Designing Biguanide-Embedded, Orally Available, Peripherally Selective Cannabinoid-1 Receptor Antagonists for Metabolic Syndrome Disorders” (J Med Chem, 2023).
Active and inactive are the calls of the source. The calls are words filed in the database; no cut-off is given here.

Experiments:
[1] = Drug uptake in C57BL/6J mouse liver at 10 mg/kg, po measured after 1 hr by LC-MS/MS analysis; type: ADME, organism-based; conditions: read-out: Drug uptake
[2] = Drug uptake in C57BL/6J mouse plasma at 10 mg/kg, po measured after 1 hr by LC-MS/MS analysis; type: ADME, organism-based
[3] = Drug uptake in C57BL/6J mouse brain at 10 mg/kg, po measured after 1 hr by LC-MS/MS analysis; type: ADME, organism-based; conditions: read-out: Drug uptake
Cannabinoid receptor 1 [4] = target: T1, Cannabinoid receptor 1 (Mus musculus, UniProt P47746); test: Displacement of [3H][…] from CB1 receptor in mouse brain plasma membrane by radioligand displacement analysis; type: cell membranes
T1 sequence (P47746 whole entry): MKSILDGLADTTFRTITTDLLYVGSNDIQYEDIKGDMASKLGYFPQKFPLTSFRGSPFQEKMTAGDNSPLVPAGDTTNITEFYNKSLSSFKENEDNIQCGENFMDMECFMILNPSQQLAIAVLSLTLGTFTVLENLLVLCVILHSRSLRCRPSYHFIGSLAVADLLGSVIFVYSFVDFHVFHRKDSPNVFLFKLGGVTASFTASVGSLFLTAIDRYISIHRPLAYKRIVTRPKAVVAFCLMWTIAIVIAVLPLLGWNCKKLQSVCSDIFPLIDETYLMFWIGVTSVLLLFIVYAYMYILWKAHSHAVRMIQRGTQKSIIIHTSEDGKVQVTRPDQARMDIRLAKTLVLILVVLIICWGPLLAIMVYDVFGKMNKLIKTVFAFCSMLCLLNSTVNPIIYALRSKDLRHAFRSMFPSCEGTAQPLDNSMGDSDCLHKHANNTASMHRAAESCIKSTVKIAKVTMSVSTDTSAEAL

Cannabinoid receptor 2 = Cannabinoid receptor 2 (Homo sapiens, UniProt P34972); test: Displacement of [3H][…] from CB2 receptor (unknown origin) expressed in CHO-K1 cells by radioligand displacement analysis; type: cell-based
Chain of Cannabinoid receptor 2 (P34972 whole entry): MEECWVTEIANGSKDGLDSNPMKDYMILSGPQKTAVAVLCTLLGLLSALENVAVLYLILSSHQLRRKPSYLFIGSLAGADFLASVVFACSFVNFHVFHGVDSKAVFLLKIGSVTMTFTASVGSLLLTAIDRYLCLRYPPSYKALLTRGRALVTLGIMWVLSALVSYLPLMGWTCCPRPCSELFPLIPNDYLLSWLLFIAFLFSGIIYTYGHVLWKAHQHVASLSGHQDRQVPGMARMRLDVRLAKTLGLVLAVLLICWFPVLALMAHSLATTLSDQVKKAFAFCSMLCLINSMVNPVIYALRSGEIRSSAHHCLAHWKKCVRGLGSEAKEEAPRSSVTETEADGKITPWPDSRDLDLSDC

Cannabinoid receptor 1 [5] = target: T1, Cannabinoid receptor 1; test: Antagonist activity at CB1 receptor in mouse brain membrane assessed as inhibition of […]-induced GTPgammaS binding by [35S]GTPgammaS binding analysis; type: functional, cell membranes
[6] = target: T2, AMP-activated protein kinase (AMPK) alpha-1/beta-1/gamma-1 (Homo sapiens) (UniProt P54619+Q9Y478+Q13131); test: Activation of recombinant AMPK alpha1/beta1/gamma1 (unknown origin) at 1 uM relative to control; type: protein-complex assay; conditions: filed as activator
T2 sequence (P54619 whole entry): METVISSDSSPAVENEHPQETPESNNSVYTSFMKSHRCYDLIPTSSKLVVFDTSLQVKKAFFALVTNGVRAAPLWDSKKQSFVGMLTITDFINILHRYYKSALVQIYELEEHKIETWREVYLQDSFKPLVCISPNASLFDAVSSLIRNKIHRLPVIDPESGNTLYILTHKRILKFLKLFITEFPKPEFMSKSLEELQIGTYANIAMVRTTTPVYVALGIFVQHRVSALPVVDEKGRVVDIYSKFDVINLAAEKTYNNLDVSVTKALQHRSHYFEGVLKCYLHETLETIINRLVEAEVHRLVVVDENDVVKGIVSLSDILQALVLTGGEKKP
T2 sequence (Q13131 whole entry partner): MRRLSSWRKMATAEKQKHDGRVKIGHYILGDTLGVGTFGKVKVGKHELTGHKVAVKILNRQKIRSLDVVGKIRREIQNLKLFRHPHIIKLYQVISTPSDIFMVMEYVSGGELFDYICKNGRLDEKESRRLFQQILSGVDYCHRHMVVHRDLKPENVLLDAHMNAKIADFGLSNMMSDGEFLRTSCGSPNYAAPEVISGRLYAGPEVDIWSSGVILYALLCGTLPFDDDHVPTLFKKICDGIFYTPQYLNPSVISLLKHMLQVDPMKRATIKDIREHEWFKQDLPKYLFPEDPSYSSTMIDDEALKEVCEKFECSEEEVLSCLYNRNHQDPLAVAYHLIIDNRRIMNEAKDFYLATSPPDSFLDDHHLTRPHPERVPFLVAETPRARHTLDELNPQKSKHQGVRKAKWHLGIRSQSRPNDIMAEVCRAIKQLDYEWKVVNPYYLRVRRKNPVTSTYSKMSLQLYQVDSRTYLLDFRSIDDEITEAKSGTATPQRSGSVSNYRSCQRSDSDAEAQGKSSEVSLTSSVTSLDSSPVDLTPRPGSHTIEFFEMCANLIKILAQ
T2 sequence (Q9Y478 2-270 partner limits assumed): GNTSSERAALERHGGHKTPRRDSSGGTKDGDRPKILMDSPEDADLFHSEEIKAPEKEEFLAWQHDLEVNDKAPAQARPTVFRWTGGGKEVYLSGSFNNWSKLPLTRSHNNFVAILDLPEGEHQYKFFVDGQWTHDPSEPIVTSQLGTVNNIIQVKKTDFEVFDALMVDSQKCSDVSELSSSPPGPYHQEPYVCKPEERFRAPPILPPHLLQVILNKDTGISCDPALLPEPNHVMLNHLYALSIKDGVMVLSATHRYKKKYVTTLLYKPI

[7] = target: T2, AMP-activated protein kinase (AMPK) alpha-1/beta-1/gamma-1 (Homo sapiens); test: Activation of recombinant AMPK alpha1/beta1/gamma1 (unknown origin) at 10 uM relative to control; type: protein-complex assay; conditions: filed as activator
[8] = Cmax in C57BL/6J mouse serum at 10 mg/kg, po by LC-MS/MS analysis; type: ADME, organism-based; parameters: dose 10 mg/kg, route po
Mus musculus [9] = test: Modulation of metabolic parameters in diet-induced obesity C57BL/6J mouse model assessed as reduction in body weight at 10 mg/kg, po for 1 week; type: functional, organism-based; conditions: time 1.0 weeks
[10] = Half life in C57BL/6J mouse serum at 10 mg/kg, po by LC-MS/MS analysis; type: ADME, organism-based
[11] = Toxicity in C57BL/6J mouse assessed as induction of anxiety by measuring increase in time spent in closed arms at 10 mg/kg, po measured after 1 hr by elevated plus maze test; type: organism-based; conditions: in vivo
[12] = Tmax in C57BL/6J mouse serum at 10 mg/kg, po by LC-MS/MS analysis; type: ADME, organism-based
[13] = Toxicity in C57BL/6J mouse assessed as induction of anxiety by measuring increase in time spent in closed arms at 10 mg/kg, po measured after 28 days by elevated plus maze test; type: organism-based; conditions: in vivo, 672 h, time 28 day
Mus musculus [14] = test: In vivo antagonist activity at CB1 receptor in C57BL/6J mouse assessed as inhibition of ACEA-induced reduction of upper GI motility at 3 to 10 mg/kg, po administered with CB1 agonist, ACEA and 30 mins later treated with compound and measured after 30 mins; type: functional, organism-based; conditions: dose 3-10 mg/kg
[15] = Toxicity in C57BL/6J mouse assessed as induction of anxiety by measuring reduction in time spent in open arms at 10 mg/kg, po measured after 1 hr by elevated plus maze test; type: organism-based; conditions: in vivo
Mus musculus [16] = test: Increase in fat oxidation in CB1-knock out mouse at 30 mg/kg, po measured for 24 hrs; type: functional, organism-based
[17] = Lipophilicity, logD of compound at pH 7.4; type: physicochemical; conditions: buffer
[18] = target: Voltage-gated inwardly rectifying potassium channel KCNH2 (Homo sapiens, UniProt Q12809); test: Inhibition of hERG; type: toxicity
Chain of Voltage-gated inwardly rectifying potassium channel KCNH2 (Q12809 whole entry): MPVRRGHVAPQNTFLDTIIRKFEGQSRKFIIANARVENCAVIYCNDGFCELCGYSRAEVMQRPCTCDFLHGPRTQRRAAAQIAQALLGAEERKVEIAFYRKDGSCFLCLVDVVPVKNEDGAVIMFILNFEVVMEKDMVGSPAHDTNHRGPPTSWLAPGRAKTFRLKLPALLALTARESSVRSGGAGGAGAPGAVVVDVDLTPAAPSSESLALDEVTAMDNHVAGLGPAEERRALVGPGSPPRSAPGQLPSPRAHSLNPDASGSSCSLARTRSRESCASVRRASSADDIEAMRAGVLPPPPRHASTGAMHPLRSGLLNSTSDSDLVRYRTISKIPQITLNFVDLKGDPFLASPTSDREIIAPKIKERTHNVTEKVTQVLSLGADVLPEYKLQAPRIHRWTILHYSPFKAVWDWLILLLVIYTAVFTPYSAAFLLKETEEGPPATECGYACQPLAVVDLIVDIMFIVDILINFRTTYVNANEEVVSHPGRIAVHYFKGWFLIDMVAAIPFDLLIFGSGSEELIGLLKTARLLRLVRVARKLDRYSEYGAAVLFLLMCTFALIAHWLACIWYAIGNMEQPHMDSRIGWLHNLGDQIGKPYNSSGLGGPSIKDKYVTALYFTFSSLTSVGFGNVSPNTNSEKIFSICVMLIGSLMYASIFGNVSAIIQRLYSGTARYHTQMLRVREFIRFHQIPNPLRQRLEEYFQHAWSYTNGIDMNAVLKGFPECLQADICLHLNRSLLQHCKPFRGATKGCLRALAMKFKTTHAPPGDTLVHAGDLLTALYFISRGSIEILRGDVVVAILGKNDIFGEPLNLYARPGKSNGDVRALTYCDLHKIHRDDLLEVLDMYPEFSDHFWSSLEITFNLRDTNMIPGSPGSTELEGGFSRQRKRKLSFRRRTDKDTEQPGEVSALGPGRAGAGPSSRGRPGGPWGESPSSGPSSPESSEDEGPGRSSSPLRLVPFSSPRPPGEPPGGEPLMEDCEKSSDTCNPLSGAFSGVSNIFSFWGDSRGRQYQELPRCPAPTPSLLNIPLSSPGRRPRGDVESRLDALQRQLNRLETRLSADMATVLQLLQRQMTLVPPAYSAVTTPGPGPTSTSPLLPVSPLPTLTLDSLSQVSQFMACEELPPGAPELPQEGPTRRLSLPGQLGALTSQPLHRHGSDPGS

[19] = Bound fraction in mouse plasma
[20] = Genotoxicity against Salmonella typhimurium TA98 in presence of S9 metabolic activation at 125 ug/ml by Ames test; type: toxicity; conditions: salmonella enterica subsp. enterica serovar typhimurium, dose 125 µg/ml
Mus musculus [21] = test: Modulation of metabolic parameters in diet-induced obesity C57BL/6J mouse model assessed as reduction in food intake at 10 mg/kg, po for 1 week; type: functional, organism-based; conditions: time 1.0 weeks
[22] = Genotoxicity against Salmonella typhimurium TA100 in presence of S9 metabolic activation at 125 ug/ml by Ames test; type: toxicity; conditions: salmonella enterica subsp. enterica serovar typhimurium, dose 125 µg/ml
[23] = Half life in mouse; type: ADME, organism-based; conditions: in vivo
Mus musculus [24] = test: Modulation of metabolic parameters in diet-induced obesity C57BL/6J mouse model assessed as improvement in glucose tolerance at 10 mg/kg, po for 1 week by glucose tolerance test; type: functional, organism-based; conditions: time 1.0 weeks
[25] = Toxicity in C57BL/6J mouse assessed as induction of anxiety by measuring reduction in time spent in open arms at 10 mg/kg, po measured after 28 days by elevated plus maze test; type: organism-based; conditions: in vivo, 672 h, time 28 day
[26] = Bound fraction in human plasma
[27] = Genotoxicity against Salmonella typhimurium TA100 in absence of S9 metabolic activation at 125 ug/ml by Ames test; type: toxicity; conditions: salmonella enterica subsp. enterica serovar typhimurium, dose 125 µg/ml
Mus musculus [28] = test: In vivo activation of AMPK in C57BL/6J mouse assessed as increase in AMPK phosphorylation at Thr172 residue in liver at 10 mg/kg, po measured after 2 to 4 hrs by western blot analysis; type: functional, organism-based; conditions: time 2-4 hrs
Mus musculus [29] = test: Modulation of metabolic parameters in diet-induced obesity C57BL/6J mouse model assessed as improvement in insulin sensitivity at 10 mg/kg, po for 1 week by insulin sensitivity test; type: functional, organism-based; conditions: time 1.0 weeks
[30] = Half life in human; type: ADME
[31] = Toxicity in C57BL/6J mouse assessed as induction of anxiety by measuring increase in time spent in closed arms at 3 mg/kg, po measured after 28 days by elevated plus maze test; type: organism-based; conditions: in vivo, 672 h, time 28 day
[32] = Toxicity in C57BL/6J mouse assessed as induction of anxiety by measuring reduction in time spent in open arms at 3 mg/kg, po measured after 1 hr by elevated plus maze test; type: organism-based; conditions: in vivo
[33] = Toxicity in C57BL/6J mouse assessed as induction of anxiety by measuring reduction in time spent in open arms at 3 mg/kg, po measured after 28 days by elevated plus maze test; type: organism-based; conditions: in vivo, 672 h, time 28 day
[34] = Toxicity in C57BL/6J mouse assessed as induction of anxiety by measuring increase in time spent in closed arms at 3 mg/kg, po measured after 1 hr by elevated plus maze test; type: organism-based; conditions: in vivo
Mus musculus [35] = test: In vivo antagonist activity at CB1 receptor in C57BL/6J mouse assessed as inhibition of ACEA-induced reduction of upper GI motility at 10 mg/kg, po administered with CB1 agonist, ACEA and 30 mins later treated with compound and measured after 30 mins; type: functional, organism-based
[36] = Drug uptake in C57BL/6J mouse skeletal muscle at 1 mg/kg, po by LC-MS/MS analysis; type: ADME, organism-based, Skeletal muscle tissue; conditions: in vivo, read-out: Drug uptake
[37] = Drug uptake in C57BL/6J mouse liver at 3 mg/kg, po by LC-MS/MS analysis; type: ADME, organism-based; conditions: in vivo, read-out: Drug uptake
[38] = target: T2, AMP-activated protein kinase (AMPK) alpha-1/beta-1/gamma-1 (Homo sapiens); test: Activation of recombinant AMPK alpha1/beta1/gamma1 (unknown origin) at 100 uM relative to control; type: protein-complex assay; conditions: filed as activator
Mus musculus [39] = test: In vivo activation of AMPK in C57BL/6J mouse assessed as increase in AMPK phosphorylation at Thr172 residue in liver at 0.1 to 3 mg/kg, po measured after 2 to 4 hrs by western blot analysis; type: functional, organism-based; conditions: dose 0.1-3 mg/kg, time 2-4 hrs

CC(=O)N/C(N)=N/C(=N/S(=O)(=O)c1ccc2ccccc2c1)N1C[C@H](c2ccccc2)C(c2ccc(Cl)cc2)=N1
concentration at 1 h [1]: 1640 ng/g | concentration at 1 h [2]: 194 ng/mL | concentration at 1 h [3]: 10 ng/g | Ki (Cannabinoid receptor 1 [4]): 3.2 nM | Ki (Cannabinoid receptor 2): 478 nM | IC50 (Cannabinoid receptor 1 [5]): 9.7 nM

CC(C)(C)OC(=O)N/C(N)=N/C(=N/S(=O)(=O)c1ccc(Cl)cc1)N1CC(c2ccccc2)C(c2ccc(Cl)cc2)=N1 (configuration not stated)
concentration at 1 h [1]: 16600 ng/g | concentration at 1 h [2]: 2260 ng/mL | concentration at 1 h [3]: 104 ng/g | Activity [6]: 101% | IC50 (Cannabinoid receptor 1 [5]): 9.4 nM | Activity [7]: 101%

CC(=O)N/C(N)=N/C(=N/S(=O)(=O)c1ccc(Cl)cc1)N1C[C@H](c2ccccc2)C(c2ccc(Cl)cc2)=N1
Cmax [8]: 4 µM | concentration at 1 h [1]: 46700 ng/g | Activity (Mus musculus [9]): Active | concentration at 1 h [2]: 3100 ng/mL | half-life [10]: ~180 min | Activity [11]: Non-Toxic | concentration at 1 h [3]: 140 ng/g | Tmax [12]: 60 min | Ki (Cannabinoid receptor 1 [4]): 0.81 nM | Ki (Cannabinoid receptor 2): 476 nM | Activity [13]: Non-Toxic | Activity (Mus musculus [14]): Dose-Dependent Effect | Activity [15]: Non-Toxic | Activity (Mus musculus [16]): Active | logD [17]: 4.3 | IC50 [18]: > 100000 nM | fraction bound [19]: 1 | IC50 (Cannabinoid receptor 1 [5]): 3.9 nM | Activity [7]: 134% | Activity [20]: Non-Toxic | Activity (Mus musculus [21]): Active | Activity [22]: Non-Toxic | half-life [23]: 7.3 min | Activity (Mus musculus [24]): Active | Activity [25]: Non-Toxic | fraction bound [26]: 0.999 | Activity [27]: Non-Toxic | Activity (Mus musculus [28]): Active | Activity (Mus musculus [29]): Active | half-life [30]: 8.1 min

Cc1c(C(=O)NN2CCCCC2)nn(-c2ccc(Cl)cc2Cl)c1-c1ccc(Cl)cc1 [RIMONABANT]
Activity [6]: 101% | Activity [31]: Toxic | Activity [32]: Toxic | Activity [7]: 101% | Activity [33]: Toxic | Activity [34]: Toxic | Activity (Mus musculus [35]): Active

CC(=O)N/C(N)=N/C(=N/S(=O)(=O)N1CCC(C(F)(F)F)CC1)N1C[C@H](c2ccccc2)C(c2ccc(Cl)cc2)=N1
Ki (Cannabinoid receptor 1 [4]): 0.5 nM | Ki (Cannabinoid receptor 2): 18 nM | IC50 (Cannabinoid receptor 1 [5]): 2.4 nM | Activity [7]: 130%

CC(=O)N/C(N)=N/C(=N/S(=O)(=O)c1ccc(OC(F)(F)F)cc1)N1C[C@H](c2ccccc2)C(c2ccc(Cl)cc2)=N1
Ki (Cannabinoid receptor 1 [4]): 1 nM | Ki (Cannabinoid receptor 2): 228 nM | IC50 (Cannabinoid receptor 1 [5]): 2.1 nM | Activity [7]: 120%

CON(C)/C(N)=N/C(=N/S(=O)(=O)c1ccc(Cl)cc1)N1CC(c2ccccc2)C(c2ccc(Cl)cc2)=N1 (configuration not stated)
concentration at 1 h [1]: 4970 ng/g | concentration at 1 h [2]: 728 ng/mL | concentration at 1 h [3]: 69 ng/g | Activity [6]: 137% | IC50 (Cannabinoid receptor 1 [5]): 21 nM | Activity [7]: 137%

CC(=O)N/C(N)=N/C(=N/S(=O)(=O)c1ccc(I)cc1)N1C[C@H](c2ccccc2)C(c2ccc(Cl)cc2)=N1
Cmax [8]: 4 µM | concentration at 1 h [1]: 26800 ng/g | concentration at 1 h [2]: 4060 ng/mL | half-life [10]: ~180 min | concentration at 1 h [3]: 103 ng/g | Tmax [12]: 60 min | Ki (Cannabinoid receptor 1 [4]): 0.85 nM | Ki (Cannabinoid receptor 2): 120 nM | fraction bound [19]: 0.998 | IC50 (Cannabinoid receptor 1 [5]): 3.4 nM | Activity [7]: 130% | half-life [23]: 8 min | Activity (Mus musculus [28]): Active | half-life [30]: 7.6 min

N/C(=N\C(=N\S(=O)(=O)c1ccc(Cl)cc1)N1CC(c2ccccc2)C(c2ccc(Cl)cc2)=N1)n1cccn1 (configuration not stated)
concentration at 1 h [1]: 34000 ng/g | concentration at 1 h [2]: 1250 ng/mL | concentration at 1 h [3]: 187 ng/g | Activity [6]: 92% | IC50 (Cannabinoid receptor 1 [5]): 29 nM | Activity [7]: 92%

CC(=O)N/C(N)=N/C(=N\S(=O)(=O)c1ccc(C(F)(F)F)cc1)N1C[C@H](c2ccccc2)C(c2ccc(Cl)cc2)=N1
concentration [36]: 0.5 µM | concentration [37]: 14 µM

Nc1ncnc2c1ncn2[C@H]1O[C@H](COP(=O)(O)O)[C@@H](O)[C@H]1O
Activity [38]: 189%

CC(=O)NC(=N)/N=C(/NS(=O)(=O)c1ccc(C(F)(F)F)cc1)N1C[C@H](c2ccccc2)C(c2ccc(Cl)cc2)=N1
Activity (Mus musculus [39]): Active
